Data from patent publication US20230082430A1 (C4 Therapeutics, Inc., priority 2019, published 2023).

system: NCIH929.1 cells; assay: Cell viability assay for Table 2 (CellTiter-Glo 2.0, ATP quantification, 96 hr); type: cell-based; conditions: 96 h
Text: Cell Viability Assay for Table 2
CellTiter-Glo® 2.0 Assay was purchased from Promega (Madison, Wis., USA). NCIH929.1 cell line was purchased from ATCC (Manassas, Va., USA). Cell culture flasks and 384-well microplates were acquired from VWR (Radnor, Pa., USA).

| SMILES | IC50 [nM] |
| --- | --- |
| O=C1CCC(N2C(=O)c3cccc4cccc2c34)C(=O)N1 (stereo not shown) [Compound 139, 3-(2-oxobenzo[cd]indol-1(2H)-yl)piperidine-2,6-dione] | < 100 |

same assay, conditions: 96 h, NCIH929.1 cell viability, 96 hr, top concentration 1 μM, 14 points half log titration; read-out: IC50

| SMILES | IC50 [nM] |
| --- | --- |
| CC1(CN2CCC(c3ccc(Cc4ccc5c6c(cccc46)C(=O)N5C4CCC(=O)NC4=O)cc3)CC2)CCC1 (stereo not shown) [Compound 170, 3-[6-[[4-[1-[(1-methylcyclobutyl)methyl]-4-piperidyl]phenyl]methyl]-2-oxo-benzo[cd]indol-1-yl]piperidine-2,6-dione] | < 1 |
| O=C1CCC(N2C(=O)c3cccc4c(Cc5ccc(CN6CCOCC6)nc5)ccc2c34)C(=O)N1 (stereo not shown) [Compound 269, 3-[6-[[6-(morpholinomethyl)-3-pyridyl]methyl]-2-oxo-benzo[cd]indol-1-yl]piperidine-2,6-dione] | < 1 |
| CN(C(=O)N1CCC(n2cc(Cc3ccc4c5c(cccc35)C(=O)N4C3CCC(=O)NC3=O)cn2)CC1)C1CC1 (stereo not shown) [Compound 261, N-cyclopropyl-4-(4-((1-(2,6-dioxopiperidin-3-yl)-2-oxo-1,2-dihydrobenzo[cd]indol-6-yl)methyl)-1H-pyrazol-1-yl)-N-methylpiperidine-1-carboxamide] | < 1 |
| O=C1CCC(N2C(=O)c3cccc4c(Cc5ccc(CN6CCOc7ccccc7C6)cc5)ccc2c34)C(=O)N1 (stereo not shown) [Compound 118, 3-(6-(4-((2,3-dihydrobenzo[f][1,4]oxazepin-4(5H)-yl)methyl)benzyl)-2-oxobenzo[cd]indol-1(2H)-yl)piperidine-2,6-dione] | < 1 |
| CC1(CN2CCC(n3cc(Cc4ccc5c6c(cccc46)C(=O)N5C4CCC(=O)NC4=O)cn3)CC23CC3)CCC1 (stereo not shown) [Compound 275, 3-[6-[[1-[4-[(1-methylcyclobutyl)methyl]-4-azaspiro[2.5]octan-7-yl]pyrazol-4-yl]methyl]-2-oxo-benzo[cd]indol-1-yl]piperidine-2,6-dione] | < 1 |
| O=C1CCC(N2C(=O)c3cccc4c(Cc5ccc(CN6CCN(S(=O)(=O)CC(F)(F)F)CC6)cc5)ccc2c34)C(=O)N1 (stereo not shown) [Compound 109, 3-(2-oxo-6-(4-((4-((2,2,2-trifIuoroethyl)sulfonyl)piperazin-1-yl)methyl)benzyl)benzo[cd]indol-1(2H)-yl)piperidine-2,6-dione] | < 1 |
| O=C1CCC(N2C(=O)c3cccc4c(Cc5ccc(CN6CCOCC6)cc5)cnc2c34)C(=O)N1 (racemic) [Compound 221, 3-[20-[[4-(morpholinomethyl)phenyl]methyl]-25-oxo-27,30-diazatricyclododeca-(2),1(18),7(20),19(21),22(27)-pentaen-30-yl]piperidine-2,6-dione] | < 1 |
| CC1(C(=O)N2CCC(n3cc(Sc4ccc5c6c(cccc46)C(=O)N5C4CCC(=O)NC4=O)cn3)CC2)CCC1 (stereo not shown) [Compound 174, 3-[6-[1-[1-(1-methylcyclobutanecarbonyl)-4-piperidyl]pyrazol-4-yl]sulfanyl-2-oxo-benzo[cd]indol-1-yl]piperidine-2,6-dione] | < 1 |
| CC(C)(C)CN1CCC(C)(n2cc(Cc3ccc4c5c(cccc35)C(=O)N4C3CCC(=O)NC3=O)cn2)CC1 (stereo not shown) [Compound 104, 3-(6-((1-(4-methyl-1-neopentylpiperidin-4-yl)-1H-pyrazol-4-yl)methyl)-2-oxobenzo[cd]indol-1(2H)-yl)piperidine-2,6-dione] | < 1 |
| CN1CCN(Cc2ccc(Cc3ccc4c5c(cccc35)C(=O)N4C3CCC(=O)NC3=O)cc2)CC1=O (stereo not shown) [Compound 116, 3-(6-(4-((4-mcthyl-3-oxopiperazin-1-yl)methyl)benzyl)-2-oxobenzo[cd]indol-1(2H)-yl)piperidme-2,6-dione] | < 1 |
| CC(C)(C)C[C@H]1CC[C@H](n2cc(Cc3ccc4c5c(cccc35)C(=O)N4C3CCC(=O)NC3=O)cn2)CC1 (stereo partly shown) [Compound 260, 3-(6-((1-((1s,4s)-4-neopentylcyclohexyl)-1H-pyrazol-4-yl)methyl)-2-oxobenzo[cd]indol-1(2H)-yl)piperidine-2,6-dione] | < 1 |
| N#Cc1ccc(N2CCN(Cc3ccc(Cc4ccc5c6c(cccc46)C(=O)N5C4CCC(=O)NC4=O)cn3)CC2)c(F)c1 (stereo not shown) [Compound 279, 4-[4-[[5-[[1-(2,6-dioxo-3-piperidyl)-2-oxo-benzo[cd]indol-6-yl]methyl]-2-pyridyl]methyl]piperazin-1-yl]-3-fluoro-benzonitrile] | < 1 |
| CC1(C(=O)N2CCN(c3cnn(Cc4ccc5c6c(cccc46)C(=O)N5C4CCC(=O)NC4=O)c3)CC2)CCC1 (stereo not shown) [Compound 246, 3-(6-((4-(4-(1-methylcyclobutane-1-carbonyl)piperazin-1-yl)-1H-pyrazol-1-yl)methyl)-2-oxobenzo[cd]indol-1(2H)-yl)piperidine-2,6-dione] | < 1 |
| O=C1CCC(N2C(=O)c3cccc4c(Cc5cnn(C6CCN(C(=O)C78COC(C7)C8)CC6)c5)ccc2c34)C(=O)N1 (stereo not shown) [Compound 37, 3-(6-((1-(1-(2-oxabicyclo[2.1.1]hexane-4-carbonyl)piperidin-4-yl)-1H-pyrazol-4-yl)methyl)-2-oxobenzo[cd]indol-1(2H)-yl)piperidine-2,6-dione] | < 1 |
| CC1(C(=O)N2CCC(C)(n3cc(Cc4ccc5c6c(cccc46)C(=O)N5C4CCC(=O)NC4=O)cn3)CC2)CCN(c2ccccn2)CC1 (stereo not shown) [Compound 271, 3-(6-((1-(4-methyl-1-(4-methyl-1-(pyridin-2-yl)piperidine-4-carbonyl)piperidin-4-yl)-1H-pyrazol-4-yl)methyl)-2-oxobenzo[cd]indol-1(2H)-yl)piperidine-2,6-dione] | < 1 |
| O=C1CCC(N2C(=O)c3cccc4c(Cc5ccc(CN6CCC7(CCCO7)CC6)cc5)ccc2c34)C(=O)N1 (stereo not shown) [Compound 215, 3-(6-(4-((1-oxa-8-azaspiro[4.5]decan-8-yl)methyl)benzyl)-2-oxobenzo[cd]indol-1(2H)-yl)piperidine-2,6-dione] | < 1 |
| CN(c1ccc(Cc2ccc3c4c(cccc24)C(=O)N3C2CCC(=O)NC2=O)cc1)C1CCN(c2ccc(C#N)cc2F)CC1 (stereo not shown) [Compound 165, 4-[4-[4-[[1-(2,6-dioxo-3-piperidyl)-2-oxo-benzo[cd]indol-6-yl]methyl]-N-methyl-anilino]-1-piperidyl]-3-fluoro-benzonitrile] | < 1 |
| CC1(n2cc(Cc3ccc4c5c(cccc35)C(=O)N4C3CCC(=O)NC3=O)cn2)CCN(CC2(C#N)CC2)CC1 (stereo not shown) [Compound 102, 1-((4-(4-((1-(2,6-dioxopiperidin-3-yl)-2-oxo-1,2-dihydrobenzo[cd]indol-6-yl)methyl)-1H-pyrazol-1-yl)-4-methylpiperidin-1-yl)methyl)cyclopropane-1-carbonitrile] | < 1 |
| N#Cc1ccc(N2CCN(C(=O)c3ccc(Cc4ccc5c6c(cccc46)C(=O)N5C4CCC(=O)NC4=O)cc3)CC2)c(F)c1 (stereo not shown) [Compound 196, 4-[4-[4-[[1-(2,6-dioxo-3-piperidyl)-2-oxo-benzo[cd]indol-6-yl]methyl]benzoyl]piperazin-1-yl]-3-fluoro-benzonitrile] | < 1 |
| CC1(C(=O)N2CCC(c3cccc(Cc4ccc5c6c(cccc46)C(=O)N5C4CCC(=O)NC4=O)c3)CC2)CCC1 (stereo not shown) [Compound 290, 3-[6-[[3-[1-(1-methylcyclobutanecarbonyl)-4-piperidyl]phenyl]methyl]-2-oxo-benzo[cd]indol-1-yl]piperidine-2,6-dione] | < 1 |
| CC1(C(=O)N2CCC(c3cn(Cc4ccc5c6c(cccc46)C(=O)N5C4CCC(=O)NC4=O)nn3)CC2)CCC1 (stereo not shown) [Compound 125, 3-[6-[[4-[1-(1-methylcyclobutanecarbonyl)-4-piperidyl]triazol-1-yl]methyl]-2-oxo-benzo[cd]indol-1-yl]piperidine-2,6-dione] | < 1 |
| N#Cc1ccc(N2CCC(Nc3ccc(Cc4ccc5c6c(cccc46)C(=O)N5C4CCC(=O)NC4=O)cc3)CC2)c(F)c1 (stereo not shown) [Compound 166, 4-[4-[4-[[1-(2,6-dioxo-3-piperidyl)-2-oxo-benzo[cd]indol-6-yl]methyl]anilino]-1-piperidyl]-3-fluoro-benzonitrile] | < 1 |
| CC1(C(=O)N2CCC(C)(n3cc(Cc4ccc5c6c(cccc46)C(=O)N5C4CCC(=O)NC4=O)cn3)CC2)CCOCC1 (stereo not shown) [Compound 81, 3-(6-((1-(4-methyl-1-(4-methyltetrahydro-2H-pyran-4-carbonyl)piperidin-4-yl)-1H-pyrazol-4-yl)methyl)-2-oxobenzo[cd]indol-1(2H)-yl)piperidine-2,6-dione] | < 1 |
| N#Cc1ccc(N2CCN(Cc3cnn(Cc4ccc5c6c(cccc46)C(=O)N5C4CCC(=O)NC4=O)c3)CC2)c(F)c1 (stereo not shown) [Compound 128, 4-[4-[[1-[[1-(2,6-dioxo-3-piperidyl)-2-oxo-benzo[cd]indol-6-yl]methyl]pyrazol-4-yl]methyl]piperazin-1-yl]-3-fluoro-benzonitrile] | < 1 |
| CC(C)(C)OC(=O)N1CC2CC(C(=O)N3CCC(n4cc(Cc5ccc6c7c(cccc57)C(=O)N6C5CCC(=O)NC5=O)cn4)CC3)(C2)C1 (stereo not shown) [Compound 292, tert-butyl 1-(4-(4-((1-(2,6-dioxopiperidin-3-yl)-2-oxo-1,2-dihydrobenzo[cd]indol-6-yl)methyl)-1H-pyrazol-1-yl)piperidine-1-carbonyl)-3-azabicyclo[3.1.1]heptane-3-carboxylate] | < 1 |

same assay, conditions: NCIH929.1 cell viability, 96 hr, top concentration 1 μM, 14 points half log titration; read-out: IC50

| SMILES | IC50 [nM] |
| --- | --- |
| CC1(CN2CCC(n3cc(Cc4ccc5c6c(cccc46)C(=O)N5C4CCC(=O)NC4=O)cn3)CC2)CC1 (single isomer, unassigned) [Compound 235, 3-[6-[[1-[1-[(1-methylcyclopropyl)methyl]-4-piperidyl]pyrazol-4-yl]methyl]-2-oxo-benzo[cd]indol-1-yl]piperidine-2,6-dione] | < 1 |
| O=C1CCC(N2C(=O)c3cccc4c(Cc5ccc(CN6CCN(c7ccc(F)cc7F)CC6)cc5)ccc2c34)C(=O)N1 (single isomer, unassigned) [Compound 257, 3-(6-(4-((4-(2,4-difluorophenyl)piperazin-1-yl)methyl)benzyl)-2-oxobenzo[cd]indol-1(2H)-yl)piperidine-2,6-dione] | < 1 |
